We go through 43 compounds from article PMC11855827, “High-Throughput Screening of Five Compound Libraries for Anthelmintic Activity and Toxicity Leads to the Discovery of Two Flavonoid Compounds” (International Journal of Molecular Sciences, 2025).

The structures appear in SMILES notation. Several values for one entry are separate records, joined by “and”; a condition that tells them apart may be missing. Equal entries are not always repeated.

The test system of the test is C. elegans. Conditions: Table S2, C. elegans SS assay, 110 μM, averages of 4 data points.

For `CC(C)=CCC[C@@](C)(O)[C@H]1CC[C@]2(C)[C@@H]1[C@H](O)C[C@@H]1[C@@]3(C)CC[C@H](O)C(C)(C)[C@@H]3CC[C@]12C` [(20R)-Protopanaxadiol], the “Percentage of motility inhibition 0 h” value came to 0% and the “Percentage of motility inhibition 24 h” value turned out to be 43%. As for `CC(C)=CCC[C@](C)(O)[C@H]1CC[C@]2(C)[C@@H]1[C@H](O)C[C@@H]1[C@@]3(C)CC[C@H](O)C(C)(C)[C@@H]3CC[C@]12C` [(20S)-Protopanaxadiol], the “Percentage of motility inhibition 0 h” value was found to be 21% and the “Percentage of motility inhibition 24 h” value is recorded as 10%.

Take `CC(C)=CCC[C@](C)(O)[C@H]1CC[C@]2(C)[C@@H]1[C@H](O)C[C@@H]1[C@@]3(C)CC[C@H](O)C(C)(C)[C@@H]3[C@@H](O)C[C@]12C` [(20S)-Protopanaxatriol]: the “Percentage of motility inhibition 0 h” value is reported as 31% and the “Percentage of motility inhibition 24 h” value was 32%. As to `CC12CCC(CC1=O)C2(C)C` (stereo not drawn) [(+)-Camphor], the “Percentage of motility inhibition 0 h” value was 2% and 0%; the “Percentage of motility inhibition 24 h” value is 5% and 0%.

For `C=C1[C@H]2CC[C@@H]3[C@H]2C(C)(C)CCC[C@]13C` [(+)-Longifolene], the “Percentage of motility inhibition 0 h” value stood at 3% and the “Percentage of motility inhibition 24 h” value is 1%. For `CC12CCC(CC1=O)C2(C)C` (stereo not drawn) [(+)‐Camphor], the “Percentage of motility inhibition 0 h” value amounted to 31% and the “Percentage of motility inhibition 24 h” value came to 1%. On to `Oc1cc(O)c2c(c1)O[C@H](c1cc(O)c(O)c(O)c1)[C@@H](O)C2` [(+)‐Gallocatechin], for which the “Percentage of motility inhibition 0 h” value was determined as 0% and the “Percentage of motility inhibition 24 h” value was 12%. With `COC1=CC(=O)OC(/C=C/c2ccccc2)C1` (stereo not drawn) [(+)‐Kavain], the “Percentage of motility inhibition 0 h” value came out at 38% and the “Percentage of motility inhibition 24 h” value came out at 14%.

Turning to `COc1ccc2c(c1O)-c1c(O)c(OC)cc3c1[C@H](C2)[N+](C)(C)CC3.[Cl-]` [(+)‐Magnoflorine (chloride)], the “Percentage of motility inhibition 0 h” value is given as 0% and the “Percentage of motility inhibition 24 h” value is listed as 0%. As to `COc1ccc2c(c1O)-c1c(O)c(OC)cc3c1[C@H](C2)[N+](C)(C)CC3.[I-]` [(+)‐Magnoflorine (iodide)], the “Percentage of motility inhibition 0 h” value was determined as 10% and the “Percentage of motility inhibition 24 h” value worked out at 8%. As to `CC1=CC[C@@]23C[C@@H]1C(C)(C)[C@@H]2CC[C@H]3C` [(-)-Cedrene], the “Percentage of motility inhibition 0 h” value was determined as 0% and the “Percentage of motility inhibition 24 h” value amounted to 17%. `Oc1ccc2c(c1)OC[C@H]1c3cc4c(cc3O[C@@H]21)OCO4` [(-)-Maackiain]: the “Percentage of motility inhibition 0 h” value amounted to 26% and the “Percentage of motility inhibition 24 h” value was found to be 26%. With `O=C1C=C2C=C[C@@H]3C[C@@]2(O1)[C@H]1CCCCN31` [(-)-Securinine], the “Percentage of motility inhibition 24 h” value turned out to be 5%. For the compound `CC1=CCC2CC1C2(C)C` (stereo not drawn) [(-)-α-Pinene], the “Percentage of motility inhibition 0 h” value was found to be 0% and the “Percentage of motility inhibition 24 h” value is given as 6%. As for `CC1=CC[C@@H](C(C)(C)O)CC1` [(-)-α-Terpineol], the “Percentage of motility inhibition 0 h” value worked out at 15% and the “Percentage of motility inhibition 24 h” value is reported as 17%. With `C=CC(=C)CC/C=C(\C)CCC=C(C)C` [(E)-β-Farnesene], the “Percentage of motility inhibition 0 h” value is listed as 0% and the “Percentage of motility inhibition 24 h” value is recorded as 11%.

Consider `COc1cc(O)cc(O)c1C(=O)/C=C/c1ccccc1` [(E)‐Cardamonin], for which the “Percentage of motility inhibition 0 h” value worked out at 13% and the “Percentage of motility inhibition 24 h” value stood at 8%.

As to `COc1ccc(/C=C/C(=O)c2c(O)cc(OC)cc2OC)cc1` [(E)‐Flavokawain A], the “Percentage of motility inhibition 0 h” value came to 33% and the “Percentage of motility inhibition 24 h” value was 11%. On to `CC(C)=CCC[C@@H](C)CCO` [(R)-Citronellol], for which the “Percentage of motility inhibition 0 h” value turned out to be 1% and the “Percentage of motility inhibition 24 h” value is on record as 14%. The corresponding values for `COc1ccc2cc1Oc1ccc(cc1)C[C@H]1c3cc(c(OC)cc3CCN1C)Oc1c(O)c(OC)cc3c1[C@H](C2)N(C)CC3` [(R)‐Fangchinoline] are 44% and 1%. The corresponding values for `CC(C)=CCC[C@H](C)CC=O` [(S)-(-)-Citronellal] are 18% and 61%. Consider `C=C(C)[C@@H]1CC=C(CO)CC1` [(S)-(−)-Perillyl alcohol], for which the “Percentage of motility inhibition 0 h” value is 36% and the “Percentage of motility inhibition 24 h” value came to 35%. Regarding `Cn1nnc(-c2ccc(-c3ccc(N4C[C@@H](CO)OC4=O)cc3F)cn2)n1` [(S)‐Tedizolid], the “Percentage of motility inhibition 0 h” value stood at 26% and the “Percentage of motility inhibition 24 h” value is on record as 5%. For `O=C(O[C@H]1Cc2c(O)cc(O)cc2O[C@@H]1c1ccc(O)c(O)c1)c1cc(O)c(O)c(O)c1` [(‐)‐Catechin gallate], the “Percentage of motility inhibition 0 h” value is 3% and the “Percentage of motility inhibition 24 h” value turned out to be 0%. For `COc1cc2c(cc1OC)[C@@H]1Cc3ccc(OC)c(OC)c3C[N@@+]1([O-])CC2` [(‐)‐Corynoxidine], the “Percentage of motility inhibition 0 h” value turned out to be 19% and the “Percentage of motility inhibition 24 h” value was 10%.

Take `Oc1ccc([C@H]2Oc3cc(O)cc(O)c3C[C@H]2O)cc1` [(‐)‐Epiafzelechin]: the “Percentage of motility inhibition 0 h” value is on record as 13% and the “Percentage of motility inhibition 24 h” value is recorded as 42%.

Turning to `O=C(O[C@@H]1Cc2c(O)cc(O)cc2O[C@@H]1c1cc(O)c(O)c(O)c1)c1cc(O)c(O)c(O)c1` [(‐)‐Epigalloca techin Gallate], the “Percentage of motility inhibition 0 h” value was determined as 9% and the “Percentage of motility inhibition 24 h” value is listed as 6%. Taken in the same sequence, the figures for `COc1cc2c(cc1O)[C@@H]1Cc3ccc(OC)c(OC)c3CN1CC2` [(‐)‐Isocorypalmine] were 0% and 0%. The corresponding values for `Cn1cc[n+](C[C@@]2(C)[C@H](C(=O)[O-])N3C(=O)C[C@H]3S2(=O)=O)n1` [AAI101] are 27% and 0%. In the case of `NC(=O)c1ncn([C@@H]2O[C@H](CO)[C@@H](O)[C@H]2O)c1N.O=P(O)(O)O` [AICAR (phosphate)], the “Percentage of motility inhibition 0 h” value is recorded as 20% and the “Percentage of motility inhibition 24 h” value is 6%. Consider `CC(=O)O[C@@H]1CC[C@@]2(C)[C@@H](CC[C@]3(C)[C@@H]2C(=O)C=C2[C@@H]4[C@@H](C)[C@H](C)CC[C@]4(C)CC[C@]23C)[C@@]1(C)C(=O)O` [AKBA], for which the “Percentage of motility inhibition 0 h” value came out at 0% and the “Percentage of motility inhibition 24 h” value stood at 6%. As to `Nc1nc(NC2CC2)c2ncn([C@H]3C=C[C@@H](CO)C3)c2n1.Nc1nc(NC2CC2)c2ncn([C@H]3C=C[C@@H](CO)C3)c2n1.O=S(=O)(O)O` [Abacavir (sulfate)], the “Percentage of motility inhibition 0 h” value was 29% and the “Percentage of motility inhibition 24 h” value was 2%.

As for `CC(=O)OC[C@H]1O[C@@H](OC[C@H]2O[C@@H](OC(=O)[C@]34CCC(C)(C)C[C@H]3C3=CC[C@@H]5[C@@]6(C)CC[C@H](O[C@@H]7OC[C@H](O)[C@H](O)[C@H]7O[C@@H]7O[C@H](CO)[C@@H](O)[C@H](O)[C@H]7O)C(C)(C)[C@@H]6CC[C@@]5(C)[C@]3(C)CC4)[C@H](O)[C@@H](O)[C@@H]2O)[C@H](O)[C@@H](O)[C@@H]1O[C@@H]1O[C@@H](C)[C@H](O)[C@@H](O)[C@H]1O` [Acanthopanaxoside B], the “Percentage of motility inhibition 0 h” value was found to be 0% and the “Percentage of motility inhibition 24 h” value stood at 0%. For the compound `CC(=O)NO` [Acetohydroxamic acid], the “Percentage of motility inhibition 0 h” value was 13% and the “Percentage of motility inhibition 24 h” value stood at 4%.

With `CC(=O)O[C@H]1Cc2cc3c(cc2[C@H]2N(C)Cc4c(ccc5c4OCO5)[C@@]12C)OCO3` [Acetylcorynoline], the “Percentage of motility inhibition 0 h” value worked out at 34% and the “Percentage of motility inhibition 24 h” value was found to be 11%.

With `CC(=O)O[C@H](C[C@@H](C)[C@H]1C(=O)[C@H](O)[C@@]2(C)[C@@H]3CC[C@H]4C(C)(C)[C@@H](O[C@@H]5OC[C@H](O)[C@H](O)[C@H]5O)CC[C@@]45C[C@@]35CC[C@]12C)[C@@H]1OC1(C)C` [Acetylshengmanol Arabinoside], the “Percentage of motility inhibition 0 h” value came out at 30% and the “Percentage of motility inhibition 24 h” value amounted to 30%. In the case of `CC(=O)O[C@H](CC(=O)O)C[N+](C)(C)C.[Cl-]` [Acetyl‐L‐carni tine (hydrochloride)], the “Percentage of motility inhibition 0 h” value was determined as 12% and the “Percentage of motility inhibition 24 h” value amounted to 0%. The corresponding values for `COCCNC(=O)Nc1ccc2nc(-c3cccs3)c(-c3cccs3)nc2c1` [Ac‐CoA Synthase Inhibitor1] are 16% and 8%.

Turning to `Nc1ncnc2nc[nH]c12.Nc1ncnc2nc[nH]c12.O=S(=O)(O)O` [Adenine (hemisulfate)], the “Percentage of motility inhibition 0 h” value came to 3% and the “Percentage of motility inhibition 24 h” value is 5%. The corresponding values for `Cl.Nc1ncnc2nc[nH]c12` [Adenine (hydrochloride)] are 0% and 0%. Taken in the same sequence, the figures for `Nc1ncnc2c1ncn2[C@@H]1O[C@H](COP(=O)(O)O)[C@@H](O)[C@H]1O.O` [Adenosine 5'-monophosphate (monohydrate)] were 20% and 2%.

In the case of `Nc1ncnc2c1ncn2[C@@H]1O[C@H](COP(=O)(O)O)[C@@H](O)[C@H]1O` [Adenosine monophosphate], the “Percentage of motility inhibition 0 h” value is given as 8% and the “Percentage of motility inhibition 24 h” value came to 6%. As to `C/C1=C2/[N-][C@H]([C@H](CC(N)=O)[C@@]2(C)CCC(=O)NC[C@@H](C)OP(=O)([O-])O[C@H]2[C@@H](O)[C@@H](n3cnc4cc(C)c(C)cc43)O[C@@H]2CO)[C@]2(C)N=C(/C(C)=C3N=C(/C=C4N=C1[C@@H](CCC(N)=O)C\4(C)C)[C@@H](CCC(N)=O)[C@]\3(C)CC(N)=O)[C@@H](CCC(N)=O)[C@]2(C)CC(N)=O.[CH2-][C@H]1O[C@@H](n2cnc3c(N)ncnc32)[C@H](O)[C@@H]1O.[Co]` [Adenosylcobalamin], the “Percentage of motility inhibition 0 h” value amounted to 20% and the “Percentage of motility inhibition 24 h” value was 22%.
